Assay results taken from US11492359B2, “Near-infrared nerve-sparing fluorophores” (OREGON HEALTH & SCIENCE UNIVERSITY, priority 2018, dated 2022).

Legend:
[1] = UV-Vis absorption and fluorescence spectroscopy of the Oxazine library; format: physicochemical; conditions: for Extinction coefficient: Beer's Law plots; for Quantum yield: relative, references Oxazine 1, Oxazine 170, Rhodamine 101
How it was run: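 Absorbance measured at room temperature in 1-cm quartz cuvette, reference corrected; extinction coefficient from Beer's Law plots of absorbance vs concentration. Fluorescence spectra corrected for PMT response; relative quantum yields averaged over multiple measurements against Oxazine 1, Oxazine 170 and Rhodamine 101 references.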

[2] = system: murine brachial plexus and sciatic nerves; assay: Nerve-specificity screening using systemic administration; format: in vivo; conditions: for nerve specificity / nerve contrast (N/M vs control group) following systemic administration: IV, 200 nmol, 4 hours prior to imaging
[3] = system: murine brachial plexus and sciatic nerves; assay: Nerve-specificity screening using direct/topical administration; format: in vivo, mouse; conditions: for nerve specificity (N/M contrast vs control group) via direct administration: 125 μM, imaged 30 minutes after staining
Protocol: All reagents were purchased from Sigma Aldrich, Fisher Scientific, TCI, or Ark Pharm. Unless otherwise indicated, all commercially available starting materials were used directly without further purification. Analytical thin layer chromatography (TLC) was performed on Millipore ready-to-use plates with silica gel 60 (F254, 32-63 μm). Flash chromatography was performed on Sorbent Technologies silica gel for column chromatography or on a Biotage Isolera Flash System using SNAP Ultra cartridges. High-resolution mass spectra (HRMS) were measured on a ThermoElectron LTQ-Orbitrap high resolution mass spectrometer with a dedicated Accela HPLC system, or an Agilent 6244 time-of-flight LCMS with diode array detector VL+. LCMS and Purity Characterization Mass-to-charge ratio and purity of the Oxazine compounds were characterized on an Agilent 6244 time-of-flight tandem liquid chromatography mass spectroscopy (LCMS) with diode array detector VL+. Sample (10 μL) was injected into a C18 column (Poroshell 120, 4.6×50 mm, 2.7 micron), and eluted with a solvent system of A (H2O, 0.1% FA) and B (MeCN, 01.% FA) at 0.4 mL/min, from A/B=90/10 to 5/95 over 10 min, maintained at A/B=5/95 for additional 5 min. Ions were detected in positive ion mode by setting the capillary voltage at 4 kV and gas temperature at 350° C. Purity was calculated through area under the curve analysis of the absorbance at 254 nm. UV-Vis Absorption and Fluorescence Spectroscopy. UV-Vis spectra were collected with a Cary 50 UV-Vis spectrophotometer at room temperature, using a 1-cm quartz cuvette. Fluorescence spectra were collected on a Cary Eclipse fluorescence spectrophotometer (Agilent Technologies). All absorbance spectra were reference corrected. Extinction coefficient was calculated from Beer's Law plots of absorbance versus concentration. Fluorescence spectra were corrected for the wavelength dependent response of the R928 photomultiplier tube using a manufacturer generated correction file. Relative quantum yields are reported as the average of multiple measurements using multiple references, including Oxazine 1, Oxazine 170, and Rhodamine 101. Physicochemical Property Calculation. Physicochemical partition coefficients (Log D) values at pH 7.4, number of hydrogen bond donors and acceptors, polar surface area, and the number of rotatable bonds were calculated using Marvin and JChem calculator plugins (ChemAxon, Budapest, Hungary). Nerve-Specificity Screening using Direct/Topical Administration Each compound was screened for its tissue-specificity using a previously published direct/topical administration strategy in murine brachial plexus and sciatic nerves.^1 Each compound from the Oxazine library was formulated in the previously utilized co-solvent formulation (10% DMSO, 5% Kolliphor, 65% serum and 20% phosphate buffered saline) at 125 μM. 100 μL of the formulated Oxazine were incubated on the exposed brachial plexus or sciatic nerve for 5 minutes. The fluorophore containing solution was removed and the area was irrigated with saline 18 times to remove any unbound fluorophore. Co-registered fluorescence and color images were collected of each stained area 30 minutes after Oxazine direct/topical administration using a custom built macroscopic imaging system with 620/60 nm excitation and 700/75 nm bandpass emission filters. Custom written MatLab code was used to analyze the tissue specific fluorescence where regions of interest were selected on the nerve, muscle and adipose tissue using the white light images. These regions of interest were then analyzed on the co-registered matched fluorescence images permitting assessment of the nerve to muscle and nerve to adipose ratios in blinded manner. […]

[4] = system: swine peripheral nerves; assay: Swine nerve imaging on da Vinci Si surgical system; format: in vivo; conditions: swine
Source text: A custom-built laparoscopic imaging system also capable of real-time color and fluorescence imaging was used to acquire in vivo swine images and videos. The imaging system was integrated into the da Vinci Si surgical system (Intuitive Surgical, Sunnyvale, Calif.) and consisted of a Necsel Neon 5 W 640 nm laser (Necsel, Milpitas, Calif.) coupled to the da Vinci Si endoscope with a 642 nm StopLine single-notch blocking filter (Semrock, Rochester, N.Y.). The single-notch blocking filter was placed in the Si camera sterile adaptor between the rod lens endoscope and the Si camera head. Fluorescent signal acquisition occurred in the Si white light mode with the blocking filter removing the excitation light and the fluorescent signal detected primarily on the red, green, blue (RGB) red-Bayer elements of a modified Si endoscope camera head. Laser power at the endoscope tip measured 800 mW with the optical power loses occurring primarily at the laser fiber/light guide and the Si camera head/rod lens interfaces. Fluorescence and color videos were captured using the Si Vision side cart at an exposure time of 2 ms. Videos were recorded on a Panasonic HD-SDI recorder connected to the TilePro video out connections on the da Vinci Si Vision side cart. Video clips were edited in iMovie to crop their length and include text overlays. Screen captures of the in vivo video clips were collected and are presented as figures. Da Vinci Si imaging display algorithms apply non-linear gamma and color corrections to the collected video, and thus, while image quantification is possible to report what would be visible to surgeons intraoperatively, these values are only semi-quantitative and could vary from what is observed in a more controlled system.
Swine nerve imaging studies of Oxazine derivatives. LGW01-08 and LGW05-75 were administered via IV injection at a body surface area scaled dose from mice for swine nerve imaging studies (0.34 mg/kg) (Nair & Jacob, J Basic Clin Pharm 7, 27-31 (2016) and Sharma & McNeill, Br J Pharmacol 157, 907-921 (2009)). Nerves running along the body wall in the peritoneal cavity buried beneath 1-3 mm of fascia and adipose tissue were imaged using the previously described fluorescence enabled laparoscopic imaging system docked to the da Vinci Si Surgical System. Nerve contrast was monitored immediately following injection and up to 6 hours after systemic administration. Dissection and resection of the identified nerve structures was performed using the da Vinci system, where the resected tissues were fixed in formalin. The fixed tissues were sent to the OHSU Histopathology Shared Resource for paraffin embedding, sectioning and subsequent gold standard H&E staining.
Image analysis of intraoperative nerve contrast. Custom written MatLab code was used to analyze the tissue specific fluorescence where regions of interest (ROIs) were selected on the nerve, muscle and adipose tissue using the white light images, but blinded to the fluorescence images. These ROIs were then analyzed on the co-registered, matched fluorescence images permitting assessment of the mean tissue intensities as well as the nerve to muscle (N/M) and nerve to adipose (N/A) ratios. Fluorescence intensity measurements were divided by the exposure time to obtain normalized intensity per second measurements. Mean nerve to background tissue ratios (N/M and N/A) were calculated for each Oxazine derivative. For nerve imaging at depth image analysis, fluorescent line profiles and 3-D intensity topographical plots were generated in ImageJ using the plot profile and surface plot functions, respectively. The line profiles were background and exposure time corrected by dividing by the exposure time of each image and subtracting the average intensity of background pixels from the entire line profile. […] In addition, non-uniform tissue surfaces, variable endoscope-tissue positioning, and vignetting add further complications to resolving tissue-level SBRs.

| SMILES | Max Abs [1] [nm] | Max Em [1] [nm] | Max Ex [1] [nm] | Extinction coefficient [1] [M⁻¹ cm⁻¹] | Quantum yield [1] [%] | nerve specificity / nerve contrast (N/M vs control group) following systemic administration [2] | N/M and N/A ratios vs unstained control animals ([2]; systemic administration) | nerve specificity (N/M contrast vs control group) via direct administration [3] | N/M and N/A ratios vs unstained control animals ([3]; direct administration) | time after administration with strong nerve SBR ([4]; IV 0.34 mg/kg) [h] | time required for sufficient background tissue clearance ([4]; IV 0.34 mg/kg) [h] | nerve contrast against key surgical tissue classes (adipose, muscle, vasculature, peritoneal) ([4]; laparoscopic) | SBR of buried nerve tissues ([4]; underlying peritoneal tissue and several millimeters of mixed adipose and muscle tissues, semi-quantitative) |
| --- | --- | --- | --- | --- | --- | --- | --- | --- | --- | --- | --- | --- | --- |
| CC/N=c1/cc2oc3cc4c(cc3nc-2cc1C)OCCN4CC [LGW05-75, (Z)—N-(4-ethyl-9-methyl-3,4-dihydro-[1,4]oxazino[2,3-b]phenoxazin-8(2H)-ylidene)ethanaminium] | 638 | 659 | 640 | 57360 | 31.70 | high nerve specificity | significantly higher N/M and N/A ratios than unstained control animals | high nerve specificity | significantly higher N/M and N/A ratios than unstained control animals | > 4.5 | ~1.5 | positive nerve contrast | ~1.5 |
| CC/N=c1/cc2oc3cc(NCC)c(F)cc3nc-2cc1F [LGW05-91, (Z)—N-(7-(ethylamino)-2,8-difluoro-3H-phenoxazin-3-ylidene)ethanaminium] | 606 | 626 | 610 | 16763 | 33.45 | negative for nerve contrast | – | positive nerve specificity | – | – | – | – | – |
| CC/N=c1/cc2oc3cc(N)c(C)cc3nc-2cc1C [LGW06-10, (Z)—N-(7-amino-2,8-dimethyl-3H-phenoxazin-3-ylidene)ethanaminium] | 602 | 621 | 605 | 55807 | 26.54 | negative for nerve contrast | – | positive nerve specificity | – | – | – | – | – |
| CC[N+](CC)=c1ccc2nc3cc(C)c(N)cc3oc-2c1 [LGW06-11, N-(7-amino-8-methyl-3H-phenoxazin-3-ylidene)-N-ethylethanaminium] | 628 | 650 | 625 | 31843 | 2.52 | negative for nerve contrast | – | positive nerve specificity | – | – | – | – | – |
| CC/N=c1/cc2oc3cc(N)ccc3nc-2cc1C [LGW06-97, (Z)—N-(7-amino-2-methyl-3H-phenoxazin-3-ylidene)ethanaminium] | 599 | 617 | 600 | 38616 | 25.39 | negative for nerve contrast | – | positive nerve specificity | – | – | – | – | – |
| c1c2c(cc3c1N=c1cc4c(cc1O3)=NCC4)NCC2 [LGW07-55, 2,3,7,8-tetrahydro-1H-dipyrrolo[3,2-b:2′,3′-i]phenoxazin-9-ium] | 619 | 634 | 620 | 20163 | 28.25 | negative for nerve contrast | – | positive nerve specificity | – | – | – | – | – |
